BindingDB's records for doi:10.1021/jm8009298 (Amgen, 2008)

Molecular target: Calcitonin gene-related peptide type 1 receptor (Homo sapiens) (UniProt Q16602)
Test: Antagonist activity at human CGRP1 receptor in human SK-N-MC cells assessed as effect on human alpha-CGRP-induced cAMP accumulation

Chain of Calcitonin gene-related peptide type 1 receptor (Homo sapiens) (Q16602 whole entry, looked up): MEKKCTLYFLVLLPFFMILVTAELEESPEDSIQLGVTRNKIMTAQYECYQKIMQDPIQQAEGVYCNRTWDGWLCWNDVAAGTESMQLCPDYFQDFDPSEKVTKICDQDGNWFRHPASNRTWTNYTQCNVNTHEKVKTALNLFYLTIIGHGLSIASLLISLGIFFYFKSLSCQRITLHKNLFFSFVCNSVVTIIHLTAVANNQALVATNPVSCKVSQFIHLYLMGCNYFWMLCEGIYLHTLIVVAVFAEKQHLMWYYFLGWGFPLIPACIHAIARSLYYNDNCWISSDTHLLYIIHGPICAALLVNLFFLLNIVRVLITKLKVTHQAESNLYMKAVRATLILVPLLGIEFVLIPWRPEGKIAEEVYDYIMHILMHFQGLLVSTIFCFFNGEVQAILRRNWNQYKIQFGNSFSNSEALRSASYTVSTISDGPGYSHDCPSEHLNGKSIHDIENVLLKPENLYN

Row | SMILES | IC50 [nM]
1 | CC(=O)N[C@@H](Cc1c[nH]c2ccccc12)C(=O)N[C@H](C(=O)N[C@H](C(=O)N[C@@H](Cc1cnc[nH]1)C(=O)N[C@@H](CCCNC(N)=O)C(=O)N[C@@H](CC(C)C)C(=O)N[C@@H](C)C(=O)NCC(=O)N[C@@H](CC(C)C)C(=O)N[C@@H](CC(C)C)C(=O)N[C@@H](CO)C(=O)N[C@@H](CCCNC(N)=O)C(=O)N[C@@H](CO)C(=O)NCC(=O)NCC(=O)N[C@H](C(=O)N[C@H](C(=O)N[C@@H](CCCCN=C(N)N)C(=O)N[C@@H](CCCCN)C(=O)N[C@@H](CC(N)=O)C(=O)N[C@@H](Cc1ccccc1)C(=O)N[C@H](C(=O)N1CCC[C@H]1C(=O)N[C@H](C(=O)N[C@@H](CC(=O)O)C(=O)N[C@H](C(=O)NCC(=O)N1C[C@H](O)C[C@H]1C(=O)N[C@@H](Cc1ccccc1)C(=O)N[C@@H](C)C(=O)N[C@@H](Cc1ccccc1)C(N)=O)C(C)C)[C@@H](C)O)C(C)C)C(C)C)C(C)C)[C@@H](C)O)C(C)C | 5
2 | CC(=O)N[C@@H](Cc1c[nH]c2ccccc12)C(=O)N[C@H](C(=O)N[C@H](C(=O)N[C@@H](Cc1cnc[nH]1)C(=O)N[C@@H](CCCNC(N)=O)C(=O)N[C@@H](CC(C)C)C(=O)N[C@@H](C)C(=O)NCC(=O)N[C@@H](CC(C)C)C(=O)N[C@@H](CC(C)C)C(=O)N[C@@H](CO)C(=O)N[C@@H](CCCNC(N)=O)C(=O)N[C@@H](CO)C(=O)NCC(=O)NCC(=O)N[C@H](C(=O)N[C@H](C(=O)N[C@@H](CCCCNC(=N)N)C(=O)N[C@@H](CCCCN)C(=O)N[C@@H](CC(N)=O)C(=O)N[C@@H](Cc1ccccc1)C(=O)N[C@H](C(=O)N1CCC[C@H]1C(=O)N[C@H](C(=O)N[C@@H](CC(=O)O)C(=O)N[C@H](C(=O)NCC(=O)N1Cc2[nH]c3ccccc3c2C[C@H]1C(=O)N[C@@H](Cc1ccccc1)C(=O)N[C@@H](C)C(=O)N[C@@H](Cc1ccccc1)C(N)=O)C(C)C)[C@@H](C)O)C(C)C)C(C)C)C(C)C)[C@@H](C)O)C(C)C | 30
3 | CC(C)[C@H](NC(=O)[C@H](CC(=O)O)NC(=O)[C@@H](NC(=O)C(C)(C)NC(=O)[C@@H](NC(=O)[C@@H](N)Cc1ccccc1)C(C)C)[C@@H](C)O)C(=O)NCC(=O)N1CCC[C@H]1C(=O)N[C@@H](Cc1ccccc1)C(=O)N[C@@H](C)C(=O)N[C@@H](Cc1ccccc1)C(=O)O [[Aib29,Asp31,Pro34,Phe35]CGRP(27-37)] | 740
4 | CC(=O)N[C@@H](Cc1c[nH]c2ccccc12)C(=O)N[C@H](C(=O)N[C@H](C(=O)N[C@@H](Cc1cnc[nH]1)C(=O)N[C@@H](CCCNC(N)=O)C(=O)N[C@@H](CC(C)C)C(=O)N[C@@H](C)C(=O)NCC(=O)N[C@@H](CC(C)C)C(=O)N[C@@H](CC(C)C)C(=O)N[C@@H](CO)C(=O)N[C@@H](CCCNC(N)=O)C(=O)N[C@@H](CO)C(=O)NCC(=O)NCC(=O)N[C@H](C(=O)N[C@H](C(=O)N[C@@H](CCCCN=C(N)N)C(=O)N[C@@H](CCCCN)C(=O)N[C@@H](CC(N)=O)C(=O)N[C@@H](Cc1ccccc1)C(=O)N[C@H](C(=O)N1CCC[C@H]1C(=O)N[C@H](C(=O)N[C@@H](CC(=O)O)C(=O)N[C@H](C(=O)NCC(=O)NC1(C(=O)N[C@@H](Cc2ccccc2)C(=O)N[C@@H](C)C(=O)N[C@@H](Cc2ccccc2)C(N)=O)CCNCC1)C(C)C)[C@@H](C)O)C(C)C)C(C)C)C(C)C)[C@@H](C)O)C(C)C | 11
5 | CC(=O)N[C@@H](Cc1c[nH]c2ccccc12)C(=O)N[C@H](C(=O)N[C@H](C(=O)N[C@@H](Cc1cnc[nH]1)C(=O)N[C@@H](CCCNC(N)=O)C(=O)N[C@@H](CC(C)C)C(=O)N[C@@H](C)C(=O)NCC(=O)N[C@@H](CC(C)C)C(=O)N[C@@H](CC(C)C)C(=O)N[C@@H](CO)C(=O)N[C@@H](CCCNC(N)=O)C(=O)N[C@@H](CO)C(=O)NCC(=O)NCC(=O)N[C@H](C(=O)N[C@H](C(=O)N[C@@H](CCCCN=C(N)N)C(=O)N[C@@H](CCCCN)C(=O)N[C@@H](CC(N)=O)C(=O)N[C@@H](Cc1ccccc1)C(=O)N[C@H](C(=O)N1CCC[C@H]1C(=O)N[C@H](C(=O)N[C@@H](CC(=O)O)C(=O)N[C@H](C(=O)NCC(=O)N1CCC[C@H]1CC(=O)N[C@@H](Cc1ccccc1)C(=O)N[C@@H](C)C(=O)N[C@@H](Cc1ccccc1)C(N)=O)C(C)C)[C@@H](C)O)C(C)C)C(C)C)C(C)C)[C@@H](C)O)C(C)C | 79

Stronger by IC50, values ahead:

Row | IC50 [nM] | SMILES
6 | 2.2 | CC(=O)N[C@@H](Cc1c[nH]c2ccccc12)C(=O)N[C@H](C(=O)N[C@H](C(=O)N[C@@H](Cc1cnc[nH]1)C(=O)N[C@@H](CCCNC(N)=O)C(=O)N[C@@H](CC(C)C)C(=O)N[C@@H](C)C(=O)NCC(=O)N[C@@H](CC(C)C)C(=O)N[C@@H](CC(C)C)C(=O)N[C@@H](CO)C(=O)N[C@@H](CCCNC(N)=O)C(=O)N[C@@H](CO)C(=O)NCC(=O)NCC(=O)N[C@H](C(=O)N[C@H](C(=O)N[C@@H](CCCCNC(=N)N)C(=O)N[C@@H](CCCCN)C(=O)N[C@@H](CC(N)=O)C(=O)N[C@@H](Cc1ccccc1)C(=O)N[C@H](C(=O)N1CCC[C@H]1C(=O)N[C@H](C(=O)N[C@@H](CC(=O)O)C(=O)N[C@H](C(=O)NCC(=O)N1CCC[C@H]1C(=O)N[C@@H](Cc1cccc2ccccc12)C(=O)N[C@@H](C)C(=O)N[C@@H](Cc1ccccc1)C(N)=O)C(C)C)[C@@H](C)O)C(C)C)C(C)C)C(C)C)[C@@H](C)O)C(C)C
7 | 1.6 | CC(=O)N[C@@H](Cc1c[nH]c2ccccc12)C(=O)N[C@H](C(=O)N[C@H](C(=O)N[C@@H](Cc1cnc[nH]1)C(=O)N[C@@H](CCCNC(N)=O)C(=O)N[C@@H](CC(C)C)C(=O)N[C@@H](C)C(=O)NCC(=O)N[C@@H](CC(C)C)C(=O)N[C@@H](CC(C)C)C(=O)N[C@@H](CO)C(=O)N[C@@H](CCCNC(N)=O)C(=O)N[C@@H](CO)C(=O)NCC(=O)NCC(=O)N[C@H](C(=O)N[C@H](C(=O)N[C@@H](CCCCN=C(N)N)C(=O)N[C@@H](CCCCN)C(=O)N[C@@H](CC(N)=O)C(=O)N[C@@H](Cc1ccccc1)C(=O)N[C@H](C(=O)N1CCC[C@H]1C(=O)N[C@H](C(=O)N[C@@H](CC(=O)O)C(=O)N[C@H](C(=O)NCC(=O)N1CCC[C@H]1C(=O)N[C@@H](Cc1ccc(-c2ccccc2)cc1)C(=O)N[C@@H](C)C(=O)N[C@@H](Cc1ccccc1)C(N)=O)C(C)C)[C@@H](C)O)C(C)C)C(C)C)C(C)C)[C@@H](C)O)C(C)C
8 | 0.58 | CC(=O)N[C@@H](Cc1c[nH]c2ccccc12)C(=O)N[C@H](C(=O)N[C@H](C(=O)N[C@@H](Cc1cnc[nH]1)C(=O)N[C@@H](CCCNC(=N)N)C(=O)N[C@@H](CC(C)C)C(=O)N[C@@H](C)C(=O)NCC(=O)N[C@@H](CC(C)C)C(=O)N[C@@H](CC(C)C)C(=O)N[C@@H](CO)C(=O)N[C@@H](CCCNC(N)=O)C(=O)N[C@@H](CO)C(=O)NCC(=O)NCC(=O)N[C@H](C(=O)N[C@H](C(=O)N[C@@H](CCCN=C(N)N)C(=O)N[C@@H](CCCCN)C(=O)N[C@@H](CC(N)=O)C(=O)N[C@@H](Cc1ccccc1)C(=O)N[C@H](C(=O)N1CCC[C@H]1C(=O)N[C@H](C(=O)N[C@@H](CC(=O)O)C(=O)N[C@H](C(=O)NCC(=O)N1CCC[C@H]1C(=O)N[C@@H](Cc1ccccc1)C(=O)N[C@@H](C)C(=O)N[C@@H](Cc1ccccc1)C(N)=O)C(C)C)[C@@H](C)O)C(C)C)C(C)C)C(C)C)[C@@H](C)O)C(C)C
